Laboratory results as given in patent publication US9028845B2, “Chimeric immunomodulatory compounds and methods of using the same-IV” (Dynavax Technologies Corporation, priority 2001, dated 2015).

System: human PBMCs
Assay: Human PBMC cytokine response assay (IFN-γ and IFN-α in cell-free medium by ELISA), with or without cPLGA;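 on IFN-α (pg/ml) mean: 20 µg/mL compound for 24 hours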;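 on IFN-γ (pg/ml) mean: 20 µg/mL compound for 24 hours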
Type: cell-based
Conditions: for IFN-γ induction, in words / IFN-α induction, in words: used alone
[1] = Table 24, mean of donors 28234-28237
[2] = Table 25, mean of donors 28250-28253
[3] = mean of donors 110, 112, 119, 120, Table 14

Substance: 5′-TCGT-3′-HEG-5′-TCGT-3′-HEG-5′-TCGT-3′-HEG-5′-TCGT-3′-HEG-5′-TCGT-3′ [Compound C-44]
- IFN-α (Table 10, donor 28042): 0 pg/mL
- IFN-γ (Table 10, donor 28042): 238 pg/mL
- IFN-α (Table 10, donor 28043): 12 pg/mL
- IFN-γ (Table 10, donor 28043): 359 pg/mL
- IFN-α (Table 10, donor 28044): 60 pg/mL
- IFN-γ (Table 10, donor 28044): 484 pg/mL
- IFN-α (Table 10, donor 28045): 1 pg/mL
- IFN-γ (Table 10, donor 28045): 51 pg/mL
- IFN-α mean (Table 10, mean of donors): 18 pg/mL
- IFN-γ mean (Table 10, mean of donors): 283 pg/mL
- activity when formulated with cPLGA, in words (formulated with cPLGA): induced considerable IFN-γ and IFN-α when formulated with cPLGA
- IFN-γ induction, in words: induce IFN-γ when used alone

Substance: (5′-TCGTCGA-3′-TEG)2-glycerol-TEG-5′-TCGTCGA-3′ [Compound C-103]
- IFN-α (Table 24, donor 28234): 16 pg/mL
- IFN-γ (Table 24, donor 28234): 21 pg/mL
- IFN-α (Table 24, donor 28235): 21 pg/mL
- IFN-γ (Table 24, donor 28235): 44 pg/mL
- IFN-α (Table 24, donor 28236): 126 pg/mL
- IFN-γ (Table 24, donor 28236): 250 pg/mL
- IFN-α (Table 24, donor 28237): 213 pg/mL
- IFN-γ (Table 24, donor 28237): 1854 pg/mL
- IFN-α mean [1]: 94 pg/mL
- IFN-γ mean [1]: 542 pg/mL
- IFN-α induction, in words: HEG (C-94)>TEG (C-103)>C3 (C-104)=no linker (C-28)

Substance: 5′-TCGACGT-3′-HEG-5′-TCGACGT-3′-HEG-5′-TCGACGT-3′ [Compound C-51]
- IFN-α induced relative to C-90 (C3 CIC) (HEG CIC vs C3 CIC): 8 fold
- IFN-α (Table 10, donor 28042): 112 pg/mL
- IFN-γ (Table 10, donor 28042): 795 pg/mL
- IFN-α (Table 10, donor 28043): 245 pg/mL
- IFN-γ (Table 10, donor 28043): 1349 pg/mL
- IFN-α (Table 10, donor 28044): 240 pg/mL
- IFN-γ (Table 10, donor 28044): 1114 pg/mL
- IFN-α (Table 10, donor 28045): 36 pg/mL
- IFN-γ (Table 10, donor 28045): 411 pg/mL
- IFN-α mean (Table 10, mean of donors): 158 pg/mL
- IFN-γ mean (Table 10, mean of donors): 917 pg/mL
- IFN-α (Table 24, donor 28234): 16 pg/mL
- IFN-γ (Table 24, donor 28234): 17 pg/mL
- IFN-α (Table 24, donor 28235): 77 pg/mL
- IFN-γ (Table 24, donor 28235): 123 pg/mL
- IFN-α (Table 24, donor 28236): 352 pg/mL
- IFN-γ (Table 24, donor 28236): 193 pg/mL
- IFN-α (Table 24, donor 28237): 3798 pg/mL
- IFN-γ (Table 24, donor 28237): 1580 pg/mL
- IFN-α mean [1]: 1061 pg/mL
- IFN-γ mean [1]: 478 pg/mL
- IFN-a (Table 25, donor 28250): 181 pg/mL
- IFN-g (Table 25, donor 28250, polynucleotides/spacers at amounts equivalent to the CIC, spacers alone 9 uM): 135 pg/mL
- IFN-a (Table 25, donor 28251): 246 pg/mL
- IFN-g (Table 25, donor 28251): 45 pg/mL
- IFN-a (Table 25, donor 28252): 95 pg/mL
- IFN-g (Table 25, donor 28252): 164 pg/mL
- IFN-a (Table 25, donor 28253): 1226 pg/mL
- IFN-g (Table 25, donor 28253): 167 pg/mL
- IFN-a mean [2]: 437 pg/mL
- IFN-g mean [2]: 128 pg/mL
- IFN-α (donor 110, Table 14): 1408 pg/mL
- IFN-γ (donor 110, Table 14): 1528 pg/mL
- IFN-α (donor 112, Table 14): 72 pg/mL
- IFN-γ (donor 112, Table 14): 240 pg/mL
- IFN-α (donor 119, Table 14): 2200 pg/mL
- IFN-γ (donor 119, Table 14): 52 pg/mL
- IFN-α (donor 120, Table 14): 622 pg/mL
- IFN-γ (donor 120, Table 14): 40 pg/mL
- IFN-α (pg/ml) mean [3]: 1076 pg/mL
- IFN-γ (pg/ml) mean [3]: 465 pg/mL
- IFN-α induction, in words: generated more IFN-α than CICs containing a 5′-TCGT-3′
- IFN-γ induction, in words: similar
- immunomodulatory activity (IFN-γ / IFN-α secretion), in words (used alone (no cPLGA)): more active than other CG-containing CICs

Substance: HEG-5′-TCGTCG-3′-HEG-5′-ACGTTCG-3′-HEG-5′-AGATGAT-3′-TEG [Compound C-30]
- IFN-α (Table 9, donor 28089): 134 pg/mL
- IFN-γ (Table 9, donor 28089): 0 pg/mL
- IFN-α (Table 9, donor 28090): 29 pg/mL
- IFN-γ (Table 9, donor 28090): 6 pg/mL
- IFN-α (Table 9, donor 28098): 52 pg/mL
- IFN-γ (Table 9, donor 28098): 12 pg/mL
- IFN-α (Table 9, donor 28099): 47 pg/mL
- IFN-γ (Table 9, donor 28099): 20 pg/mL
- IFN-α mean (Table 9, mean of donors): 65 pg/mL
- IFN-γ mean (Table 9, mean of donors): 9 pg/mL

Substance: 5′-TCGAACGTTCGA-3′ (SEQ ID NO: 155) (listed as DNA, chemistry not fully specified) [Compound P-17, reference compound]
- IFN-α (Example 58, 0.8 ug/ml, donor 1): 52 pg/mL
- IFN-α (Example 58, 0.8 ug/ml, donor 2): 105 pg/mL
- IFN-α (Example 58, 0.8 ug/ml, donor 3): 52 pg/mL
- IFN-α (Example 58, 0.8 ug/ml, donor 4): 286 pg/mL
- IFN-α mean (Example 58, 0.8 ug/ml, mean of four individuals): 124 pg/mL
- IFN-α (Example 58, 4 ug/ml, donor 1): 9154 pg/mL
- IFN-α (Example 58, 4 ug/ml, donor 2): 10388 pg/mL
- IFN-α (Example 58, 4 ug/ml, donor 3): 531 pg/mL
- IFN-α (Example 58, 4 ug/ml, donor 4): 837 pg/mL
- IFN-α mean (Example 58, 4 ug/ml, mean of four individuals): 5228 pg/mL
- IFN-α (Example 58, 20 ug/ml, donor 1): 1022 pg/mL
- IFN-α (Example 58, 20 ug/ml, donor 2): 1792 pg/mL
- IFN-α (Example 58, 20 ug/ml, donor 3): 52 pg/mL
- IFN-α (Example 58, 20 ug/ml, donor 4): 52 pg/mL
- IFN-α mean (Example 58, 20 ug/ml, mean of four individuals): 729 pg/mL
